# Laboratory results as given in patent US20120020915A1, “Compounds and Methods for Treating Cancer and Diseases of the Central Nervous System” (QUEENS UNIVERSITY AT KINGSTON, priority 2007, published 2012).
# Entries after “also recorded” stand apart in the source; their conditions may differ.
# Legend:
# HO-2 (rat brain) = biological target: T1, HO-2 (rat brain) (Rattus norvegicus, UniProt P23711); experiment: HO enzymatic activity, rat brain microsomal fraction (CO formation from methemalbumin); type: biochemical; conditions: CO formation from methemalbumin, mean ± SD of replicate experiments, read-out: IC50 HO-2 (rat brain)/μM)
# T1 construct: brain microsomes were used as a source of HO-2; from tissue; host or cells: brain microsomal fraction of adult male Sprague-Dawley rats
# T1 sequence (P23711 1-315): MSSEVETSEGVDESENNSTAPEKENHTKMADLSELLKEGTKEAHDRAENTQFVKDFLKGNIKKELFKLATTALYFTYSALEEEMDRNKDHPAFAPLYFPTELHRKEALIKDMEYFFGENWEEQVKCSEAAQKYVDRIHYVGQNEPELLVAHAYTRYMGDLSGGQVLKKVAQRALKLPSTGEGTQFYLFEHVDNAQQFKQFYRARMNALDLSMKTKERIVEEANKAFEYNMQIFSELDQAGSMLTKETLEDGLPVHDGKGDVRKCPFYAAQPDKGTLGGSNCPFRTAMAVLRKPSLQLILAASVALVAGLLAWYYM
# rat C6 glioma cells = experiment: Cell proliferation assay ([3H] thymidine incorporation), C6 glioma cells; type: cell-based; conditions: 6.5 μM, 18 h, hHO-1 transfected rat C6 glioma cells; hydrochloride
# Method: Rat C6 glioma cells were cultivated in high glucose DMEM supplemented with 10% heat-inactivated fetal bovine serum, […] glutamine, and penicillin-streptomycin (50 U/mL and 50 μg/in L, respectively). […] All cultures were incubated at 37° C. in humidified 95% air-5% CO2.
# Cells were seeded in 24-well plates at 1×10^6 cells/mL/well. Upon reaching >90% confluence, cells in each well were transiently transfected with 1.6 μg of plasmid DNA-Lipofectamine 2000 complex using Lipofectamine 2000 method according to manufacturer instructions (Invitrogen). 1.6 μg of plasmid DNA and 4 μL of Lipofectamine 2000 reagent were diluted individually in 100 μL opti-MEM I and incubated for 5 minutes at room temperature with gentle mixing. […]
# Cell proliferation was determined by [^3H] thymidine incorporation: Cells were plated in 24-well plates at 10^6 cells/mL/well in complete medium. […] The cells were trypsinized and collected, air-dried on 21 mm glass microfibre filters (Whatman International Ltd., Maidstone, England) and analyzed by scintillation counting in a Wallac-Liquid Scintillator Counter (Perkin Elmer Life Sciences, Boston, Mass., USA). [^3H] thymidine incorporation was expressed as counts per min (cpm) per mL.
# [1] = type: in vivo
# Excerpt: (§1) Control groups received the vehicle alone.
# [2] = tested on: human metastatic prostate cancer PC-3M cells; experiment: Orthotopic PC-3M prostate cancer model in SCID mice, primary tumor and metastases; type: in vivo, male SCID; conditions: 32-mouse study
# Excerpt: PC-3 & PC-3M (human prostate carcinoma). The PC-3 human prostate cancer cell line was originally obtained from the American Type Culture Collection (Rockville, Md.). The PC-3M cell line was kindly provided by Dr. Issac (MD Anderson Cancer Center). This cell variant was derived from a liver metastasis produced by the parental PC-3 cells growing in the spleen of a nude mouse [Pettaway C A, Pathak S, Greene G. et al. Selection of highly metastatic variants of different human prostate carcinomas utilizing orthotopic implantation in nude mice. Clin Cancer Res 1996; 2:1627-36].
# Cell cultures were maintained in 5% CO2/95% air at 37° C. SKMEL-V (human melanoma cells). SKMEL-V cells were derived from SKMEL-24 cells (ATCC) by overexpression of mouse VEGF.
# Exponentially growing cells were harvested using a brief exposure to 0.25% trypsins:0.1% EDTA solution (w/v).
# Mice were anesthesized with isofluorane given by inhalation and placed in a supine position. Betadine and 75% Ethanol was used to clean the skin of abdomen. A low midline incision was made and the prostate was exposed. Fifty microliters of HBSS containing 1×10^6 cells was injected into a lateral lobe of the prostate. […]
# Primary tumors in the prostate were excised, measured, and weighed. […]
# The in vivo data was analyzed using the Mann-Whitney U test.
# [3] = tested on: HCT-116 colorectal carcinoma; experiment: Colorectal carcinoma model HCT-116 in SCID mice, tumor growth delay; type: in vivo, Mouse (Mus musculus); male SCID; conditions: dosage of 60 mg/kg
# Excerpt: as §1
IC50 (HO-2 (rat brain)) [µM],Structure (SMILES),"3H-thymidine incorporation, hHO-1 transfected cells (rat C6 glioma cells)","toxicity in the combination study ([1]; QC-56 60 mg/kg ip, 4 cycles, chemotherapy drugs ip)","tolerability at multiple doses up to 100 mg/kg ([1]; multiple doses up to 100 mg/kg, intraperitoneal and intravenous routes, hydrochloride)",formation of macroscopic lymph node metastases [2],mortality [3]
> 100,"Cl.FC[C@@H]1CO[C@@](CCc2ccc(Cl)cc2)(Cn2ccnc2)O1 [QC-47, (2R,4S)-1-{2-[2-(4-Chlorophenyl)ethyl]-4-fluoromethyl-[1,3]dioxolan-2-ylmethyl}-1H-imidazole hydrochloride]",,,,,
,"Brc1ccc(CCC2(Cn3ccnc3)OCCO2)cc1.Cl [QC-56, 1-((2-(2-(4-Bromophenyl)ethyl)-1,3-dioxolan-2-yl)methyl)-1H-imidazole hydrochloride]",significantly attenuated the effects of hHO-1 transfection on ^3H-thymidine incorporation; also recorded: this rate of proliferation was attenuated,No apparent toxicity,well tolerated with no apparent signs of toxicity; also recorded: well tolerated,complete inhibition,not
